# Test results reported in patent US12005034B2 (ALGOTHERAPEUTIX, priority 2017, dated 2024).
# How the values were obtained:
# [1] = target: T1, TRPV1 (Mus musculus, UniProt Q704Y3); assay: Calcium mobilization in DRG neurons with TRPV1 antagonist or agonist; format: cell-based
# T1 construct: calcium ion mobilization was investigated in primary cultures of mouse DRG neurons; endogenous in cells; host or cells: primary mouse DRG neurons
# Protocol: (§1) For calcium mobilization measurements, 10 DRG cultures (two mice per culture) were washed with Hanks Balanced Salt Solution (HBSS, Thermo Fisher Scientific, Massachusetts, USA), and incubated in HBSS containing 1 μg/ml papain (Sigma Aldrich, Missouri, USA) and L-cysteine (pH 7.4, Sigma Aldrich) for 10 minutes at 37° C. […] Neurons were then mechanically dissociated. […] DRG neurons were incubated with HBSS containing 20 mM Hepes, […] fluo-4 acetoxymethyl (AM) ester (Thermo Fisher Scientific, Waltham, MA USA) and 0.02% pluronic acid for 30 min at 37° C. followed by an additional incubation for 30 min at room temperature. The medium was then discarded and replaced by HBSS. […] The effects of TRP channel agonists and antagonists on amitriptyline-induced calcium ion mobilization were then assessed as follows: neurons were incubated with either an antagonist for TRPV1 (10 μM AMG 9810, Sigma Aldrich) or an antagonist for TRPA1 (HCO30031; […] Sigma Aldrich). Neurons were imaged using an inverted microscope (Zeiss) and a 10×0.5 NA objective. […] Baseline fluorescence was determined for 0 to 10 seconds, and then fluorescence was measured from the 10th to the 65th second after the neurons were incubated with the drugs or controls. […] Variations in fluorescence intensity measured in each neuron were identified using Image J2 software.
# [2] = target: T2, TRPA1 (Mus musculus, UniProt Q8BLA8); assay: Calcium mobilization in DRG neurons with TRPA1 antagonist or agonist; format: cell-based
# T2 construct: calcium ion mobilization was investigated in primary cultures of mouse DRG neurons; endogenous in cells; host or cells: primary mouse DRG neurons
# T2 sequence (Q8BLA8 whole entry): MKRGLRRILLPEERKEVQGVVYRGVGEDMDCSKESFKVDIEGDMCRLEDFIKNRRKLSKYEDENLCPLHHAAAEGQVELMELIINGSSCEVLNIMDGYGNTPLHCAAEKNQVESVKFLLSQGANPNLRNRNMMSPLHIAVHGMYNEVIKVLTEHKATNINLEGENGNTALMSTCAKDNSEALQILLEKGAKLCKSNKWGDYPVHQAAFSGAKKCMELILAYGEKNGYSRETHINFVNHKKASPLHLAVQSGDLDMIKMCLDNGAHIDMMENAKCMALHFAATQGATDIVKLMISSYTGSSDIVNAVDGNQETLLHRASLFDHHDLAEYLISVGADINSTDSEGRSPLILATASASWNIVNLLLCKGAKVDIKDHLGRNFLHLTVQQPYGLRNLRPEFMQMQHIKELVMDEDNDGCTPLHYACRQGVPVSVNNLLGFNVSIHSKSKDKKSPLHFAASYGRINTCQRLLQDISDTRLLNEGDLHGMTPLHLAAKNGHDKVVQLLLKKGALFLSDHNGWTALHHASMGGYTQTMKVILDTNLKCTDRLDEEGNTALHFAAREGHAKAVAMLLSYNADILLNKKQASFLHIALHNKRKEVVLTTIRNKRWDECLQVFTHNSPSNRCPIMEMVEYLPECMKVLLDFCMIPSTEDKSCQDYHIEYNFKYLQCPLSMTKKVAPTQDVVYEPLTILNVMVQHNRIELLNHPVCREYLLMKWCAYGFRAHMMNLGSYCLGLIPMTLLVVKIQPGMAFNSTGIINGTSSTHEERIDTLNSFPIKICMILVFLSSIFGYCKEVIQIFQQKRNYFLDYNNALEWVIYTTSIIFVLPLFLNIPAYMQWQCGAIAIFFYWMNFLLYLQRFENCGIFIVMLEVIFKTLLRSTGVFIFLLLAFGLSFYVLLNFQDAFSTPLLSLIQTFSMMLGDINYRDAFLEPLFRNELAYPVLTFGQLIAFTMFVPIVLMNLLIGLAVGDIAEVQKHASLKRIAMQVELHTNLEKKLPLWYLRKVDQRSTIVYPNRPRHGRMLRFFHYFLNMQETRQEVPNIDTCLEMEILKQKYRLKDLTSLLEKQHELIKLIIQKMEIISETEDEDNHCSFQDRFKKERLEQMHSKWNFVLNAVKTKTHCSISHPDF
# Protocol: as §1
# [3] = Ex vivo study of percutaneous amitriptyline absorption, Frantz cell; format: in vitro ADME, human
# [4] = system: Aβ fibers; assay: Ex vivo single unit recordings, skin-saphenous nerve preparation; format: cell-based, mouse
# Protocol: (§2) Adult male mice were anesthetized with isoflurane (4%) and sacrificed by severing of the carotid arteries. Skin-saphenous nerve preparations and single-fiber recordings were carried out. The saphenous nerve and the skin of the hind limb were carefully dissected and placed in a custom-designed organ chamber containing warm oxygenated synthetic interstitial fluid (SIF). […] The saphenous nerve was placed in an adjacent recording chamber filled with mineral oil, gently teased, and groups of nerve fibers were placed on a gold recording electrode in order to isolate single-unit activity. […] Cambridge Electronic Design Limited, UK). Spikes were discriminated off-line using the Spike2 software (Cambridge Electronic Design Limited, UK) and analyzed individually to avoid false positives. The mechanically evoked activity of single saphenous nerve fibers was first obtained in response to von Frey hair stimulations (Friedrich-Alexander University, Erlangen, Germany). Once a receptive field had been characterized, a patch of skin was isolated from the surrounding bath using a plastic minichamber (inner diameter: 0.8 cm) continuously superfused with buffer at 31° C. The receptive field was then stimulated using von Frey mechanical probes mounted on the arm of a computer-controlled piezoelectric […]® controller; PI, Germany). Conduction velocity was determined by electrically stimulating (Tungsten microelectrode: 10 mm ext/60 mm PI; FHC, USA) identified receptive fields with square wave pulses (0.1-0.5 ms, 7-15 V). Axons were considered to be A-type when the conduction velocity was over 4 m/s. Fibers with a conduction velocity below 1 m/s were classified as C fibers.
# [5] = system: C fibers; assay: as above; format: cell-based, mouse
# Protocol: as §2
# [6] = system: Aδ fibers; assay: as above; format: cell-based; conditions: Mus musculus, 10 min
# Protocol: (§3) Adult male mice were anesthetized with isoflurane (4%) and sacrificed by severing of the carotid arteries. Skin-saphenous nerve preparations and single-fiber recordings were carried out. The saphenous nerve and the skin of the hind limb were carefully dissected and placed in a custom-designed organ chamber containing warm oxygenated synthetic interstitial fluid (SIF). […] The saphenous nerve was placed in an adjacent recording chamber filled with mineral oil, gently teased, and groups of nerve fibers were placed on a gold recording electrode in order to isolate single-unit activity. […] Cambridge Electronic Design Limited, UK). Spikes were discriminated off-line using the Spike2 software (Cambridge Electronic Design Limited, UK) and analyzed individually to avoid false positives. The mechanically evoked activity of single saphenous nerve fibers was first obtained in response to von Frey hair stimulations (Friedrich-Alexander University, Erlangen, Germany). Once a receptive field had been characterized, a patch of skin was isolated from the surrounding bath using a plastic minichamber (inner diameter: 0.8 cm) continuously superfused with buffer at 31° C. […] Conduction velocity was determined by electrically stimulating (Tungsten microelectrode: 10 mm ext/60 mm PI; FHC, USA) identified receptive fields with square wave pulses (0.1-0.5 ms, 7-15 V). […]
# [7] = system: C, Aδ and Aβ fibers; assay: Ex vivo single unit recordings, skin-saphenous nerve preparation, all fiber types; format: cell-based, mouse
# Protocol: as §3
# [8] = target: T3, Nav1.8 (Mus musculus, UniProt Q6QIY3); assay: Whole-cell patch-clamp of sodium currents in Nav1.9-/- DRG neurons; format: cell-based; conditions: holding potential −100 mV, cumulative 1 μM-1 mM; read-out: IC50, block of Nav1.8 current
# T3 construct: The Nav1.8 current was recorded in Nav1.9−/− DRG neurons; endogenous in cells; host or cells: primary DRG neurons from Nav1.9-/- mice (C57Bl/6J background)
# [9] = target: T4, hNav1.7 (Homo sapiens, UniProt Q15858); assay: Whole-cell patch-clamp of sodium currents in hNav1.7-transfected HEK293T cells; format: cell-based; conditions: holding potential −80 mV, cumulative 1 μM-1 mM; read-out: IC50, block of Nav1.7 current
# T4 construct: expressed in transfected cells; host or cells: HEK293T
# Protocol: Human embryonic kidney 293T (HEK293T) cells were grown in DMEM containing 4.5 mg/ml glucose, 10% FBS, 50 units/ml penicillin and 50 μg/ml streptomycin. Cells were plated onto 12-mm round glass poly-D-lysine-coated coverslips placed in 24-well plates and transfected using lipofectamine 2000 (Invitrogen) according to the manufacturer's instructions. hNav1.7 and GFP plasmids were co-transfected at a concentration of 600 and 100 ng/ml, respectively. Experiments were conducted on cells 24-48 hours post-transfection.
# (§4) Patch clamp recordings were made using borosilicate electrodes (Harvard Apparatus, Holliston, Massachusetts, USA) with a resistance of 2-3 MΩ when filled with an intracellular solution consisting of (in mM): 130 CsCl, 10 Hepes, 8 NaCl, 0.4 NaGTP, 4 MgATP, 1 MgCl2, 1 CaCl2 and 10 EGTA (adjusted to pH 7.3 with CsOH, ˜300 mOsm/L). […] Sodium currents were recorded individually. […] The Nav1.8 current was recorded in Nav1.9−/− DRG neurons, whereas the Nav1.9 current was recorded in Nav1.8−/− DRG neurons. […] Fast activating/inactivating TTX-sensitive Na+ currents (Nav1.1 and Nav1.6) in putative non-nociceptors were recorded in wild-type DRG neurons that had large cell membrane capacitance (Cm>60 pF) and lacked any TTX-resistant Na+ current components. […]
# [10] = target: T5, Nav1.9 (Mus musculus, UniProt Q9R053); assay: Whole-cell patch-clamp of sodium currents in Nav1.8-/- DRG neurons; format: cell-based; conditions: holding potential −100 mV, cumulative 1 μM-1 mM; read-out: IC50, block of Nav1.9 current
# T5 construct: the Nav1.9 current was recorded in Nav1.8−/− DRG neurons; endogenous in cells; host or cells: primary DRG neurons from Nav1.8-/- mice (C57Bl/6J background)
# T5 sequence (Q9R053 whole entry): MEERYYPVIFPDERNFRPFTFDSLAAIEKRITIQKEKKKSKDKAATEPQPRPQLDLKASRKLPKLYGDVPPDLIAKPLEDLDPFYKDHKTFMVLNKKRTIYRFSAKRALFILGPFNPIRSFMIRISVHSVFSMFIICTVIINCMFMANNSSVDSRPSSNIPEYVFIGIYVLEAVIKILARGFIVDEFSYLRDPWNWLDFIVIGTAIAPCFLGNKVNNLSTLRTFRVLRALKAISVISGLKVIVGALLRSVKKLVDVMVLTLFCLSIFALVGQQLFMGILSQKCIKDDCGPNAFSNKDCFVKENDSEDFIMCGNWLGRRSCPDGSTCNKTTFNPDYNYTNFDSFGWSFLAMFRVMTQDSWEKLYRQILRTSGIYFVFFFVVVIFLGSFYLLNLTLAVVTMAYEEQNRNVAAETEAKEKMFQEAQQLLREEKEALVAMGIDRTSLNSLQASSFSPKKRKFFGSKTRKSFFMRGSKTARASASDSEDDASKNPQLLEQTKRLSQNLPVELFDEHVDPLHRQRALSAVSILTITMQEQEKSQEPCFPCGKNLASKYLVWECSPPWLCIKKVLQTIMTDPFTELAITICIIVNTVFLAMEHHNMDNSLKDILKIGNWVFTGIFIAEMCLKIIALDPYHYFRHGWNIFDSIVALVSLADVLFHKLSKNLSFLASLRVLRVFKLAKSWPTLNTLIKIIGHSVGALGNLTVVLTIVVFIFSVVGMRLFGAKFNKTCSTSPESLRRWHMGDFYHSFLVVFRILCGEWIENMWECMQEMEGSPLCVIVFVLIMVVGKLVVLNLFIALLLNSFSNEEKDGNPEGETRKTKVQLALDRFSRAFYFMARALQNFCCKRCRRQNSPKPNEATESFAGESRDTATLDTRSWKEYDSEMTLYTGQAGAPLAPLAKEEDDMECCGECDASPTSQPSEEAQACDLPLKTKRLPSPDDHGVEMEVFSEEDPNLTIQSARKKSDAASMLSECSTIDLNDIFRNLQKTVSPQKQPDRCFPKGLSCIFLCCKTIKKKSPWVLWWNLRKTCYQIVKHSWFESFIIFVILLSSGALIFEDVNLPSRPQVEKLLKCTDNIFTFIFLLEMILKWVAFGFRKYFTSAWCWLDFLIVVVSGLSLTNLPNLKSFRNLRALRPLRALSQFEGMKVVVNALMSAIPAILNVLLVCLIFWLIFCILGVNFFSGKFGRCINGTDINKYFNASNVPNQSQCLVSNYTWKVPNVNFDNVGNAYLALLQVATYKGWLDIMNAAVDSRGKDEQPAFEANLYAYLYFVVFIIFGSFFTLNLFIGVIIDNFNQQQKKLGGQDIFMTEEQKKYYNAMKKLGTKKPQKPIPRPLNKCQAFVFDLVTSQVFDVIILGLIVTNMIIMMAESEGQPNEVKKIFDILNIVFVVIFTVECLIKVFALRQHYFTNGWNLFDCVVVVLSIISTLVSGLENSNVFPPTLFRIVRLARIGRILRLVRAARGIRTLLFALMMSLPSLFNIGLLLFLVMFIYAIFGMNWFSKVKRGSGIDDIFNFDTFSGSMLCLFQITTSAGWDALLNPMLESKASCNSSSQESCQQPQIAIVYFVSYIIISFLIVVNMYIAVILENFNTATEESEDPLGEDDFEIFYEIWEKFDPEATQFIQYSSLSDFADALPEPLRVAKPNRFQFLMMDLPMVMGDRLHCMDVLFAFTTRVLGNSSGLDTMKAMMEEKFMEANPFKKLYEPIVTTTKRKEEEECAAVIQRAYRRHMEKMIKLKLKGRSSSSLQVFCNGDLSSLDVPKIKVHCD
# Protocol: (§5) Cultures of DRG were prepared from male mice anesthetized with isoflurane (4%, Piramal Critical Care) and sacrificed by severing of the carotid arteries. Cultures of dissociated DRG neurons were established from thoracolumbar DRG.
# (§6) DRG for whole-cell patch-clamp recordings were incubated in Hanks balance salt solution (Invitrogen, France) containing 2 mg/ml of collagenase IA (Sigma, France) for approximately 45 minutes at 37° C. DRG were washed at least 10 times and then triturated with a fired polished glass Pasteur pipette. […]
# as §4
# [11] = system: TTX-S Nav channels (Nav1.1 and Nav1.6); assay: Whole-cell patch-clamp of TTX-sensitive sodium currents in wild-type DRG neurons; format: cell-based, mouse; conditions: read-out: IC50, block of TTX-S Nav currents; holding potential −80 mV, touch mechanoreceptors
# Protocol: as §5, §6, §4
# [12] = system: Nav channels in sensory neurons; assay: Whole-cell patch-clamp of sodium currents, all Nav channels tested; format: cell-based, mouse; conditions: 100 μM
# Source text: Patch clamp recordings were made using borosilicate electrodes (Harvard Apparatus, Holliston, Massachusetts, USA) with a resistance of 2-3 MΩ when filled with an intracellular solution consisting of (in mM): 130 CsCl, 10 Hepes, 8 NaCl, 0.4 NaGTP, 4 MgATP, 1 MgCl2, 1 CaCl2 and 10 EGTA (adjusted to pH 7.3 with CsOH, ˜300 mOsm/L). […] Voltage-gated sodium ion currents were leak-subtracted using a P/6 protocol and voltage errors were minimized using 75-80% series resistance compensation. Cultured cells were perfused with the bath solution at flow rate of 5 mL/min. Recordings were made at room temperature (20-24° C.) using an Axopatch 200B amplifier (Axon Instruments, Boston, Massachusetts, USA), filtered at 1-2 kHz, and digitally sampled at 5-20 kHz. Sodium currents were recorded individually. […]. The Nav1.8 current was recorded in Nav1.9−/− DRG neurons, whereas the Nav1.9 current was recorded in Nav1.8−/− DRG neurons. Nav1.8−/− and Nav1.9−/− mice were generated from a C57B1/6J background. Fast activating/inactivating TTX-sensitive Na+ currents (Nav1.1 and Nav1.6) in putative non-nociceptors were recorded in wild-type DRG neurons that had large cell membrane capacitance (Cm>60 pF) and lacked any TTX-resistant Na+ current components. Nav1.7 recordings were made using the transfected HEK cells.
# [13] = system: mouse DRG neurons; assay: Calcium mobilization in DRG neurons, fluo-4 calcium imaging; format: cell-based
# Protocol: For calcium mobilization measurements, 10 DRG cultures (two mice per culture) were washed with Hanks Balanced Salt Solution (HBSS, Thermo Fisher Scientific, Massachusetts, USA), and incubated in HBSS containing 1 μg/ml papain (Sigma Aldrich, Missouri, USA) and L-cysteine (pH 7.4, Sigma Aldrich) for 10 minutes at 37° C. […] Neurons were then mechanically dissociated. […] DRG neurons were incubated with HBSS containing 20 mM Hepes, […] fluo-4 acetoxymethyl (AM) ester (Thermo Fisher Scientific, Waltham, MA USA) and 0.02% pluronic acid for 30 min at 37° C. followed by an additional incubation for 30 min at room temperature. The medium was then discarded and replaced by HBSS. […] The effects of TRP channel agonists and antagonists on amitriptyline-induced calcium ion mobilization were then assessed as follows: neurons were incubated with either an antagonist for TRPV1 (10 μM AMG 9810, Sigma Aldrich) or an antagonist for TRPA1 (HCO30031; […] Sigma Aldrich). Neurons were imaged using an inverted microscope (Zeiss) and a 10×0.5 NA objective. Images were acquired using a CCD camera (Zeiss) and Zen software (Zeiss). Acquisition parameters were kept constant during each experiment. Kinetic analysis was performed using 85 recordings (one per second). Baseline fluorescence was determined for 0 to 10 seconds, and then fluorescence was measured from the 10th to the 65th second after the neurons were incubated with the drugs or controls. At 65 seconds, 50 mM KCl was added to the cells in order to allow discrimination between neurons and glial cells. Variations in fluorescence intensity measured in each neuron were identified using Image J2 software.
# [14] = in vivo; cited from earlier work
# [15] = system: neuropathic pain; conditions: topical, maximum dose used 5%; cited from earlier work
# [16] = Mus musculus, 10 min, skin superfusion 10 min, 10-100 μM, read-out: IC50, inhibition of mechanically induced firing
# [17] = Mus musculus, 10 min, 100 μM, 10 min application to the skin preparation, read-out: Mean inhibition of evoked firing
# T1 sequence (Q704Y3 whole entry): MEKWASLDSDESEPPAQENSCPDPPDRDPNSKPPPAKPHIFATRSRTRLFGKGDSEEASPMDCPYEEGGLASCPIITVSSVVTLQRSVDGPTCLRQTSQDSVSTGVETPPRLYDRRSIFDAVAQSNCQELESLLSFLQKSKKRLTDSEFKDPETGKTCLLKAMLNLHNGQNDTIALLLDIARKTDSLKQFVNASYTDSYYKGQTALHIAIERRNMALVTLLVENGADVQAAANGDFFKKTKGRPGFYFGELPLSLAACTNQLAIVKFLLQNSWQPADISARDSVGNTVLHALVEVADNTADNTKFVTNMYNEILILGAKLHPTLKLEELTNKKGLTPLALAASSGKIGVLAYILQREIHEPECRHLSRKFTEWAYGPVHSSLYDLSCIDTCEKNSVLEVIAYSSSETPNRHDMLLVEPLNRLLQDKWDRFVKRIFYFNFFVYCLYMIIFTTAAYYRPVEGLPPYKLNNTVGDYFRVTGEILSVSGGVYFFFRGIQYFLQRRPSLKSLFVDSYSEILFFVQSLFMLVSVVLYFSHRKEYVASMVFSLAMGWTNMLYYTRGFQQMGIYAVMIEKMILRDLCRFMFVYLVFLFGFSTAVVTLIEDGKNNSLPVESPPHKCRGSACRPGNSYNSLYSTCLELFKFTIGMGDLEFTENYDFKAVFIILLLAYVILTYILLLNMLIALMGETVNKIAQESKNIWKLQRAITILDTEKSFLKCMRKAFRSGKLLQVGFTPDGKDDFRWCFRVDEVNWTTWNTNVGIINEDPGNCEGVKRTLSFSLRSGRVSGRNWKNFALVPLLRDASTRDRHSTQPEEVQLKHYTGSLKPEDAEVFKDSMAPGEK
structure (smiles),measurement,setting,value
CC(C)(C)c1ccc(/C=C/C(=O)Nc2ccc3c(c2)OCCO3)cc1 [AMG9810],effect of antagonist pretreatment on amitriptyline-induced calcium ion mobilization,"[1]; 5-min pretreatment, 10 μM TRPV1 antagonist",had no effect
CC(C)c1ccc(NC(=O)Cn2cnc3c2c(=O)n(C)c(=O)n3C)cc1 [HC30301],effect of antagonist pretreatment on amitriptyline-induced calcium ion mobilization,"[2]; 5-min pretreatment, excess of TRPA1 antagonist",led to inhibition of amitriptyline-induced calcium ion mobilization
"CN(C)CCC=C1c2ccccc2CCc2ccccc21 [amitriptyline, Amitriptyline]",amitriptyline bioavailability,"[3]; 10 mg of 10% cream per cell, 16 hours",22.5 µg
same,amitriptyline present in the epidermis,"[3]; compared with dermis, 10% cream, 16 hours",26%
same,amitriptyline present in the dermis,"[3]; compared with epidermis, 10% cream, 16 hours",Approximately 74%
same,passage into the bloodstream,[3]; relative to the amount of amitriptyline present in the composition,less than 0.1%
same,"discharge of a low-threshold Aβ mechanoreceptor, representative recording","[4]; 1 mN stimulus, 100 μM, 5 and 10 min superfusion",inhibition was not complete
same,"reversal of inhibition after washout, Aβ mechanoreceptor",[4]; 30 min washout after 100 μM,partially reversed
same,IC50,[4]; [16],~26 µM
same,inhibition at 100 µM,[4]; [17],82.5%
same,"firing in a C-type mechanonociceptor fiber, representative recording","[5]; 11.4 mN stimulation, 100 μM, 10 min superfusion",Full inhibition of firing
same,IC50,[5]; [16],~15 µM
same,inhibition at 100 µM,[5]; [17],95.6%
same,IC50,"[6]; skin superfusion 10 min, 10-100 μM, read-out: IC50, inhibition of mechanically induced firing",~16 µM
same,inhibition at 100 µM,"[6]; 100 μM, 10 min application to the skin preparation, read-out: Mean inhibition of evoked firing",87.5%
same,time of washout to reversal of inhibition,[7],30 to 35 min
same,IC50,[8],4.25 ± 0.4 µM
same,IC50,[9],4.25 ± 0.4 µM
same,IC50,[10],15.6 ± 0.5 µM
same,IC50,[11],62 ± 0.5 µM
same,time to reversal of inhibition,[12],≤ 20 ± 2 min
same,time to increase in intracellular calcium ions,[13]; 0.1 mM,≤ 10 s
same,time to plateau of intracellular calcium ion amplitude curve,[13]; 0.1 mM,around 20 seconds
same,IC50,"[13]; Mus musculus, DRG neuron, 0.01 mM-1 mM, read-out: IC50, percentage of DRG neurons displaying intracellular calcium mobilization",50 µM
same,potentiation of DRG neuron activation induced by TRPA1 agonist,"[2]; 0.01 mM, 5-min incubation, 50 μM AITC",did not potentiate
same,potentiation of DRG neuron activation induced by TRPV1 agonist,"[1]; 0.01 mM, 5-min incubation, 62 nM capsaicin",did not potentiate
same,plasma half-life,[14],9 to 36 h
same,efficacy in the treatment of neuropathic pain,[15],not efficacious
